{
  "source": "patent EP0623592B1",
  "about": "“Peptide analogs as irreversible interleukin-1beta protease inhibitors” (VERTEX PHARMACEUTICALS INCORPORATED, priority 1993, dated 1994)",
  "data": [
    {"molecular_target": "T1, IL-1β protease (Homo sapiens, UniProt P29466)", "T1 construct": "Partially purified IL-1β protease is stored at -80°C", "T1 sequence (P29466 120-297 limits assumed)": "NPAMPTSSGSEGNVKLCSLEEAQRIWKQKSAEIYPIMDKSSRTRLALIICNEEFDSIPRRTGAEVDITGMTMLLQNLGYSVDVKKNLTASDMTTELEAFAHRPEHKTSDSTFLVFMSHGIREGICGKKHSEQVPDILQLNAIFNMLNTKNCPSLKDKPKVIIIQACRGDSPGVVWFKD", "T1 sequence (P29466 317-404 limits assumed)": "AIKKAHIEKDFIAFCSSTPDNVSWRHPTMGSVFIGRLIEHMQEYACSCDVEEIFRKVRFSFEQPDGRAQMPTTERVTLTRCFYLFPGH", "test": "IL-1β protease inhibition assay (HPLC readout of TRITC-AYVHDAPVRS-NH2 substrate cleavage)", "format": "biochemical", "details": "partially purified IL-1β protease; 15 minutes preincubation with inhibitor at 37°C; substrate 67 µM; 60 minutes at 37°C", "protocol": "Compounds of the present invention were tested for IL-1β protease inhibition activity according to the following protocol: Partially purified IL-1β protease is stored at -80°C, thawed on ice, and preincubated for 10 minutes at 37°C with 2.5 mM dithiothreitol in a buffer solution containing 10 mM Tris-HCI (pH 8.0) and 25% (v/w) glycerol. Inhibitors are prepared as stock solutions in dimethyl sulfoxide (DMSO). The protease is preincubated with inhibitor in a volume of 20 µl in a 1.5 ml polypropylene microcentrifuge tube for 15 minutes at 37°C. The volume of compound added to the assay is adjusted to yield a DMSO concentration in the preincubation of <15% (v/v). The enzyme assay is then initiated by the addition of substrate (TRITC-AYVHDAPVRS-NH2) to yield a final concentration of 67 µM in a final volume of 30 µl. The reactions are carried out for 60 minutes at 37°C in the dark and are terminated by the addition of 10 µl of 10% trifluoroacetic acid (TFA). Following the addition of 115 µl of 0.1% TFA, the samples are analyzed by high pressure liquid chromatography using a reverse phase (C18) column and elution with an acetonitrile/water/TFA gradient. Substrate and product are monitored by their absorbance at 550 nm and elute at 4.2 and 5.2 minutes, respectively.", "units": {"IC50": "nM"}, "values": [
      {"smiles": "O=C(O)C[C@H](NC(=O)OCc1ccccc1)C(=O)COC(=O)c1c(Cl)cccc1Cl", "note": "[Example 38, N-Benzyloxycarbonyl-L-Aspartic Acid 2,6-Dichlorobenzoyloxymethyl Ketone]", "IC50": 50},
      {"smiles": "O=C(O)C[C@H](NC(=O)OCc1ccccc1)C(=O)COC(=O)c1c(C(F)(F)F)cccc1C(F)(F)F", "note": "[Example 40, N-Benzyloxycarbonyl-L-aspartic acid 2,6-ditrifluoromethyl benzoyloxymethyl ketone]", "IC50": 100},
      {"smiles": "O=C(O)C[C@H](NC(=O)OCc1ccccc1)C(=O)COc1c(Cl)cccc1Cl", "note": "[Example 41, N-Benzyloxycarbonyl-L-aspartic acid 2,6-dichlorophenoxymethylketone]", "IC50": 100},
      {"smiles": "COC(=O)N[C@@H](C)C(=O)N[C@@H](CC(=O)O)C(=O)COC(=O)c1c(Cl)cccc1Cl", "note": "[Example 54, N-Methoxycarbonyl-L-alanine-L-aspartic acid 2,6-dichlorobenzoyloxymethyl ketone]", "IC50": 60},
      {"smiles": "COC(=O)N[C@@H](Cc1ccccc1)C(=O)N[C@@H](CC(=O)O)C(=O)COC(=O)c1c(Cl)cccc1Cl", "note": "[Example 57, N-Methoxycarbonyl-L-phenylalanine-L-aspartic acid 2,6-dichlorobenzoyloxymethyl ketone]", "IC50": 70},
      {"smiles": "COC(=O)N[C@@H](CC(=O)O)C(=O)COC(=O)c1c(Cl)cccc1Cl", "note": "[Example 67, N-Methoxycarbonyl-L-aspartic acid 2,6-dichlorobenzoyloxymethyl ketone]", "IC50": 80}
    ]}
  ]
}
